From patent publication US10273267B2, “Beta-hairpin peptidomimetics as selective elastase inhibitors” (POLYPHOR AG, priority 2013, dated 2019)
pIC50: −log10 of the molar value. *1 amine or outer side, *2 acyl side, *3 side chain or, on linkers, in order; H or OH if unused. Where a SMILES comes first, the peptide text is derived from it. [ ]: non-standard residue; d: D form. X2 = C[C@@H](O)[C@@H](CCC(=O)[*:2])N[*:1]; Oic = O=C(O)[C@@H]1C[C@@H]2CCCC[C@@H]2N1; Gly(octyl) = CCCCCCCC[C@H](N)C(=O)O; Pip = O=C(O)[C@@H]1CCCCN1; Dap = NC[C@H](N)C(=O)O

Experiments:
Type in all cases: biochemical
[1] = target: T1, porcine pancreatic elastase (Sus scrofa, UniProt P00772); assay: Inhibition of porcine pancreatic elastase (hydrolysis of MeOSuc-AAA-pNA); conditions: for hNE/PPE selectivity: ratio of PPE IC50 to hNE IC50; for pIC50: substrate MeOSuc-AAA-pNA 1 mM, enzyme 15 nM, 37° C., pH8, read-out: Porcine pancreatic elastase (PPE) IC50
T1 construct: purchased Sigma, USA
T1 sequence (P00772 27-266): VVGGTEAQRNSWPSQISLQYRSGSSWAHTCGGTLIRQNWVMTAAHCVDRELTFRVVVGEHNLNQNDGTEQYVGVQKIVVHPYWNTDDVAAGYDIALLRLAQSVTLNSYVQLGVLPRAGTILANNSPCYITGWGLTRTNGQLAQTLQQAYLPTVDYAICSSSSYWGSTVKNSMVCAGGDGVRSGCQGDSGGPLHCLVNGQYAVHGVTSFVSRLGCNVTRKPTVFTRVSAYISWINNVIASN
Procedure, shortened: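 Elastase (15 nM) incubated at 37 °C with 1 mM MeOSuc-AAA-pNA and serially diluted peptides (0.5% DMSO) in 50 mM Tris pH 8, 100 mM NaCl, 0.01% Tween20. pNA release read at 405 nm over 30 min; IC50 from 4-parameter Hill fit.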

[2] = target: T2, human neutrophil elastase (Homo sapiens, UniProt P08246); assay: Inhibition of human neutrophil elastase (hydrolysis of MeOSuc-AAPV-pNA); conditions: substrate MeOSuc-AAPV-pNA 0.3 mM, enzyme 10 nM, 37° C., pH 8; read-out: Human neutrophil elastase (hNE) IC50
T2 construct: purchased Serva Electrophoresis, Germany
T2 sequence (P08246 30-267): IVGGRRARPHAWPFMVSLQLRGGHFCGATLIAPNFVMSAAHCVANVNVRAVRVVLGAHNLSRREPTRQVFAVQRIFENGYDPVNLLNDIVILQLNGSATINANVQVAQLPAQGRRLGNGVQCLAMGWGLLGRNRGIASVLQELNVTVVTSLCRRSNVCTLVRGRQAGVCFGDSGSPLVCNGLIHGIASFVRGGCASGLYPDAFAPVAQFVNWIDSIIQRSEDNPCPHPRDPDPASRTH
Procedure, shortened: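 MeOSuc-AAPV-pNA (0.3 mM) hydrolysis by 10 nM enzyme at 37° C with serially diluted peptides (1% DMSO) in 50 mM Tris pH 8, 300 mM NaCl, 0.01% Tween20. pNA release read at 405 nm over 30 minutes; IC50 from 4-parameter Hill fit.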

human proteinase 3 = target: T3, human proteinase 3 (Homo sapiens, UniProt P24158); assay: Inhibition of human proteinase 3 (substrate Boc-Ala-Ala-Nva-SBzl); conditions: for hNE/hPr3 selectivity: ratio of hPr3 IC50 to hNE IC50; for pIC50: substrate Boc-Ala-Ala-Nva-SBzl 1 mM, enzyme 10 nM, 37° C., pH7.4, read-out: Human proteinase 3 (hPr3) IC50
T3 construct: purchased Elastin Products Company, USA
T3 sequence (P24158 28-248): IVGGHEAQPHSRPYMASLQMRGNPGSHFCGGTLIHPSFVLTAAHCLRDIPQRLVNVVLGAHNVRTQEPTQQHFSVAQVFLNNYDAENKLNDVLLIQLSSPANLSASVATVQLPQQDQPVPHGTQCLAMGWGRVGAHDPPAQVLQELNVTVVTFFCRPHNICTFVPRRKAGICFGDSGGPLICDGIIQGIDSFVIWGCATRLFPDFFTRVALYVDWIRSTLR
Procedure, shortened: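 Enzyme at 10 nM incubated at 37°C with 1 mM thiobenzyl ester substrate, 250 μM 4,4′-dithiodipyridine and serial peptide dilutions (0.5% DMSO) in Tris pH 7.4, 150 mM NaCl, 0.01% Tween20. Absorbance at 340 nm followed over 30 min; IC50 from 4-parameter Hill fit.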

SMILES | hNE/PPE selectivity [1] | pIC50 [1] | pIC50 [2] | hNE/hPr3 selectivity (human proteinase 3) | pIC50 (human proteinase 3)
CCCCCCCC[C@@H]1NC(=O)[C@@H]2CCCN2C(=O)[C@H]2CCCN2C(=O)[C@H]([C@@H](C)O)NC(=O)[C@H](CCCCN)NC(=O)[C@H](CCC(N)=O)NC(=O)[C@@H]2C[C@@H]3CCCC[C@@H]3N2C(=O)[C@@H]2CCCN2C(=O)[C@H]([C@@H](C)CC)NC(=O)[C@H](CO)NC(=O)[C@H](C)NC(=O)[C@H]([C@@H](C)O)NC(=O)[C@H](CCC(=O)O)NC1=O [Example 10, Cyclo(-OctGly-Glu-Thr-Ala-Ser-Ile-Pro-Oic-GI n-Lys-Thr-^DPro-Pro-)] (cyclo([Gly(octyl)]ETASIP[Oic]QKT[dP]P)) | 4959 | 4.44 | 8.14 | >13699 | < 4.00
CCCCCCCC[C@@H]1NC(=O)[C@H](Cc2ccc(O)cc2)NC(=O)[C@@H](CO)NC(=O)[C@H]([C@@H](C)O)NC(=O)[C@H](CCCCN)NC(=O)[C@H](CCC(N)=O)NC(=O)[C@@H]2CCCN2C(=O)[C@@H]2CCCN2C(=O)[C@H]([C@@H](C)CC)NC(=O)[C@H](CO)NC(=O)[C@H](C)NC(=O)[C@H]([C@@H](C)O)NC(=O)[C@H](CCC(=O)O)NC1=O [Example 31, Cyclo(-OctGly-Glu-Thr-Ala-Ser-Ile-Pro-Pro-GI n-Lys-Thr-^DSer-Tyr-)] (cyclo([Gly(octyl)]ETASIPPQKT[dS]Y)) | 2275 | 4.28 | 7.64 | 1432 | 4.48
CCCCCCCC[C@@H]1NC(=O)[C@@H]2CCCN2C(=O)[C@H]2CCCN2C(=O)[C@H](CN)NC(=O)[C@H](CCCCN)NC(=O)[C@H](CCC(N)=O)NC(=O)[C@@H]2CCCN2C(=O)[C@@H]2CCCN2C(=O)[C@H]([C@@H](C)CC)NC(=O)[C@H](CO)NC(=O)[C@H](C)NC(=O)[C@H]([C@@H](C)O)NC(=O)[C@H](CCC(=O)O)NC1=O [Example 2, Cyclo(-OctGly-Glu-Thr-Ala-Ser-Ile-Pro-Pro-Gln-Lys-Dap-^DPro-Pro-)] (cyclo([Gly(octyl)]ETASIPPQK[Dap][dP]P)) | 218 | 5.92 | 8.26 | 644 | 5.45
CCCCCCCC[C@@H]1NC(=O)[C@@H]2CCCN2C(=O)[C@H]2CCCN2C(=O)CC[C@H]([C@@H](C)O)NC(=O)[C@H](CCCCN)NC(=O)[C@H](CCC(N)=O)NC(=O)[C@@H]2CCCN2C(=O)[C@@H]2CCCN2C(=O)[C@H]([C@@H](C)CC)NC(=O)[C@H](CO)NC(=O)[C@H](C)NC(=O)[C@H]([C@@H](C)O)NC(=O)[C@H](CCC(=O)O)NC1=O [Example 11, Cyclo(-OctGly-Glu-Thr-Ala-Ser-Ile-Pro-Pro-Gln-Lys-[H-γ^4-DiHThr-OH]-^DPro-Pro-)] (cyclo([Gly(octyl)]ETASIPPQK[X2][dP]P)) | 4217 | 4.31 | 7.94 | 1835 | 4.68
CCCCCCCC[C@@H]1NC(=O)[C@@H]2CCCN2C(=O)[C@H]2CCCN2C(=O)[C@H]([C@@H](C)O)NC(=O)[C@H](CCCCN)NC(=O)[C@H](CCC(N)=O)NC(=O)[C@@H]2CCCCN2C(=O)[C@@H]2CCCN2C(=O)[C@H]([C@@H](C)CC)NC(=O)[C@H](CO)NC(=O)[C@H](C)NC(=O)[C@H]([C@@H](C)O)NC(=O)[C@H](CCC(=O)O)NC1=O [Example 45, Cyclo(-OctGly-Glu-Thr-Ala-Ser-Ile-Pro-Pip-Gln-Lys-Thr-^DPro-Pro-)] (cyclo([Gly(octyl)]ETASIP[Pip]QKT[dP]P)) | 324 | 5.64 | 8.15 | 127 | 6.05
CCCCCCCC[C@@H]1NC(=O)[C@H](C(C)C)NC(=O)[C@@H](CCCCN)NC(=O)[C@H]([C@@H](C)O)NC(=O)[C@H](CCCCN)NC(=O)[C@H](CCC(N)=O)NC(=O)[C@@H]2CCCN2C(=O)[C@@H]2CCCN2C(=O)[C@H]([C@@H](C)CC)NC(=O)[C@H](CO)NC(=O)[C@H](C)NC(=O)[C@H]([C@@H](C)O)NC(=O)[C@H](CCC(=O)O)NC1=O [Example 26, Cyclo(-OctGly-Glu-Thr-Ala-Ser-Ile-Pro-Pro-GI n-Lys-Thr-^DLys-Val-)] (cyclo([Gly(octyl)]ETASIPPQKT[dK]V)) | 4415 | 4.33 | 7.97 | 472 | 5.30
